This note sets out measurements from patent US11203598B2, “Compounds for repressing cancer cell growth” (Institute For Cancer Research, priority 2018, dated 2021).

The subject of data set [1] is p53 pathway proteins in SW480 cells. Put plainly: Western blot of p53, p53 targets, apoptosis and autophagy markers. In kind it is cell-based, human. As to conditions: for Noxa protein expression: SW80 cells, 24 hours. The procedure:
(§1) After treatment, cells were harvested by trypsinization, washed with PBS, and lysed with RIPA buffer (Sigma-Aldrich) for 30 minutes to 1 hour at 4° C. Protein lysates were spun down and supernatant was collected. Protein quantification was performed using a Pierce™ BCA Protein Assay Kit (Thermo Fisher Scientific). 1×NuPAGE® LDS sample buffer (Thermo Fisher Scientific) and 2-Mercaptoethanol as the reducing agent (Sigma-Aldrich) were added to protein lysates, followed by boiling for 15 minutes at 95° C. Equal total protein amounts samples were loaded into NuPAGE™ Novex™ 4-12% Bis-Tris Protein Gels (1.5 mm, Thermo Fisher Scientific) and gel eletrophoresis was performed with NuPAGE™ MES SDS Running Buffer. Proteins were transferred onto an Immobilon-P membrane (PVDF, EMD Millipore) using a Bio-Rad system with a 10% Tris-Glycine and 10% methanol transfer buffer diluted in distilled and deionized water. After transfer, membranes were blocked with 10% milk in TBST solution and then incubated overnight with primary antibody, washed with TBST and incubated with secondary antibody for 1 hour. Incubations were performed in 5% milk in TBST solution. Signal was detected by using a chemiluminescent detection kit, followed by autoradiography. The following antibodies were used: p53 (DO-1, 1:1000, Santa Cruz), p73 (1:1000, Bethyl Laboratories), p21 and NOXA (1:250, EMD Millipore), DR5, FADD, cleaved caspase 3, cleaved caspase 8, cleaved PARP, and LC3B (1:1000, Cell Signaling), and β-actin (1:10000, Sigma).
(§2) Proteins were isolated using NP40 Lysis Buffer (20 mmol/L Tris-HCl (pH 7.4), 150 mmol/L NaCl, 5 mmol/L EDTA, 50 mmol/L NaF, 1 mmol/L glycerophosphate, 5 mmol/L Na4P2O7, 0.5% NP40, and complete protease inhibitor cocktail (Roche)) and electrophoresed through 4-12% SDS-PAGE followed by semi-dry transfer to PVDF membranes. The PVDF membranes were incubated with different antibodies including p21 (OP64-100UG, EMD Millipore (world wide web at emdmillipore.com/US/en/product/Antip21WAF1-(Ab-1)-Mouse-mAb-(EA10), EMD_BIO-OP64)), PUMA (12450S, Cell Signaling Technology, world wide web at cellsignal.com/products/primary-antibodies/puma-d30c10-rabbit-mab/12450), DR5 (3696S, Cell Signaling Technology, world wide web at cellsignal.com/products/primary-antibodies/dr5-antibody/3696?N=4294956287&Ntt=3696s&fromPage=plp& requestid=541668), p53(sc-126, Santa Cruz, world wide web at scbt.com/scbt/fr/product/p53-antibody-do-1), and RAN (610341, BD Transduction Laboratories, world wide web at bdbiosciences.com/us/reagents/research/antibodies-buffers/cell-biologyreagents/cell-biology-antibodies/purified-mouse-anti-ran-20ran/p/610341) in blocking buffer at 4° C. overnight. Bound antibody will be detected using IRDye secondary antibodies (LI-COR Biosciences,) in Odyssey blocking buffer for 1 hour then imaged using the ODYSSEY infrared imaging system.
(A western blot detects proteins with antibodies after separation by electrophoresis.)

Data set [2] deals with p53 pathway proteins in DLD-1 cells. Put plainly: Western blot of p53 targets and LC3B. In kind it is cell-based, human. As to conditions: DLD-1, 24 hours. The procedure:
as §1, §2

The next data set concerns cell cycle G2 checkpoint. The data set can be described thus: propidium iodide staining cell cycle analysis. In kind it is cell-based. The note with it: 24 hour treatment, alone and with etoposide. The procedure: Referring to FIG. 22 (panels A-F), propidium iodide staining cell cycle analysis for 24 hour treatment with DMSO (panel A), CB002 (panel B), CB002 and etoposide (panel C), etoposide (panel D), caffeine (panel E), and caffeine and etoposixe (panel F). […] The deregulation of the G2 checkpoint as a mechanism by caffeine prevents […] tumor cells that are treated with DNA damaging drugs, such as etoposide, from arresting to have time to repair, and thus sensitizes cancer cells to cell death.

Data set [3] has as its system SW480 cells. Put plainly: CellTiter-Glo luminescent cell viability assay. Format: cell-based, human. The procedure:
Cells were seeded in 96-well plates at a density of 5×10^3 cells per well. 20 μL of CellTiter-Glo® Reagent was added directly to the wells, following the manufacturer's protocol, and bioluminescence signal was determined using an IVIS imaging system.
Cell lines at a concentration of 4×10^3 cells/well were seeded out on an opaque 96-well plate and treated with CB002 and Analog 11 in ranging doses starting from 200 μmol/L with DMSO controls. At 72 hours after treatment, cells were mixed with 30 μL Cell Titer-Glo reagent and after ten minutes of room temperature incubation were imaged using IVIS imaging system (Xenogen).
To begin establishing the potential of CB002 as a candidate therapeutic agent, its therapeutic index was determined by treating cancer (DLD-1, SW480, and RXF393) and normal (WI38 and MRC5) cell lines with concentrations of CB002 ranging from 0-500 μM for a period of 72 hours and assessing cell viability by the CellTiter-Glo® luminescence assay (see, FIG. 2). CB002 has a significant therapeutic index among the cells tested.
On the technique in general: ATP-based viability assays read luminescence as a measure of living cells.

The next data set deals with WI38 normal cells. Put plainly: apoptosis assay, sub-G1 analysis (propidium iodide, flow cytometry). As to conditions: 25 μM, 48 hours. Format: cell-based, human. As for the experimental part:
(§3) Apoptotic cells were quantified by sub-G1 analysis. Cells were seeded at a density of 2.5×10^5 to 5×10^5 in a 6-well plate and treated for 48-72 hours. After treatment, adherent cells were trypsinized and collected along with floating cells, washed with PBS and fixed in 70% ethanol. Cells were then incubated in a Phosphate-citric acid buffer (0.2 M Na2HPO4+0.1 M Citric Acid, pH 7.8) at room temperature for 5 minutes, spun down and resuspended for staining with 50 μg/mL propidium iodide (PI) in the presence of 250 μg/mL pancreatic ribonuclease (RNase A). Sub-G1 analyses were performed using an Epics Elite Epics flow cytometer (Coulter-Beckman).
(§4) Cells were seeded out at 1×10^6 cells/well on six well plates and treated with CB002 and Analog 11 at ranging doses with DMSO controls. Cells were harvested after 72 hours of treatment, all cells including floating cells were fixed with ethanol and stained with Propidium Iodide and then analyzed using Epics Elite flow cytometer to measure the DNA content of the stained cells.
Background: In flow cytometry, cells or beads pass a laser one at a time.

For data set [4], the system named is SW480 cells. The description is as above. In kind it is cell-based, human. The note with it: 25 μM, 48 hours. As for the experimental part:
as §3, §4

Data set [5] concerns Noxa in 8226 bortezomib resistant multiple myeloma cell line. The data set can be described thus: Western blot of Noxa. Format: cell-based. The note with it: 25 μM Analog 4, 100 μM Analog 11. The procedure: Referring to FIG. 20 (panel C), 1×10^6 cells/well were seeded in a 12-well plate. 8226 parental and resistant multiple myeloma cell lines were treated with 100 μM CB002, 25 μM Analog 4, or 100 μM Analog 11.

The test system of the next data set is 8226 cells. Put plainly: combination treatment with bortezomib, combination index (CompuSyn). In kind it is cell-based. The note with it: 48 hours, 0-100 nM Bortezomib with 0-200 μM analog. The procedure:
Referring to FIG. 21 (panels A and B), 3×10^4 cells/well of 8226 cells were seeded in a 96-well plate. The cells were treated for 48 hours with a combination of 0-100 nM Bortezomib with 0-200 μM Analog 4 (see, panel A) and 0-100 nM Bortezomib with 0-200 μM Analog 11 (see, FIG. 21, panel B). CompuSyn software was used to analyze the combination index of both drugs.

For data set [6], the system named is MM1S Bortezomib resistant cells. Put plainly: Cell Titer-Glo cell viability with bortezomib. The note with it: 25 μM Analog 4. In kind it is cell-based. The procedure:
Referring to FIG. 21 (panel C), 3×10^4 cells/well of MM1S parental and Bortezomib MM1S resistant cells were seeded in a 96-well plate. Cell viability was determined by the Cell Titer-Glo® Assay.

For `CC(=O)CCCCn1c(=O)c2c(ncn2C)n(C)c1=O` [pentoxifylline, reference compound], the Noxa protein expression entry in [1] and in [2] was “dis not induce Noxa expression” throughout.

In the case of `Cn1c(=O)c2c(ncn2C)n(C)c1=O` [caffeine, reference compound], the Noxa protein expression result in data set [1] and in data set [2] was “dis not induce Noxa expression” throughout. Further, the “effect on cell cycle G2 checkpoint” value in the data set on cell cycle G2 checkpoint is “can deregulate the cell cycle G2 checkpoint”.

Take `Cn1c(=O)c2[nH]cnc2n(C)c1=O` [theophylline, reference compound]: the Noxa protein expression result in data set [1] and in [2] was “dis not induce Noxa expression” each time.

Take `O=c1[nH]cc(F)c(=O)[nH]1` [Analog 5-FU, 5-fluorouracil, reference compound]: in the data set with SW480 cells [3] (72 hours, ascending doses), the “toxicity (cell viability reduction), 5-FU versus CPT-11” value is “greater toxicity”.

In the case of `Cn1c(=O)c2[nH]c(Nc3cccc(C(F)(F)F)c3)nc2n(C)c1=O` [Analog 4], in the data set on SW480 cells [3] (Cell Titer-Glo, serial dilution), the “IC50 ranking among CB002 analogs” value was “most potent compound”. Moreover, the “expression of DR5, Noxa and cleaved Parp” value in data set [1] (12 or 25 μM, 16 and 24 hours) was “increased expression of DR5, Noxa, and cleaved Parp”. The Noxa expression result in [1] (24 hour, 100 μM CB002, 25 NM Analog 4, 100 μM Analog 11) is listed as “Induction of Noxa expression”; in data set [5] it was “able to induce Noxa expression”. The “apoptosis by sub-G1 content” value in the data set with WI38 normal cells is on record as “not normal human fibroblast WI38 cells”; in the data set with SW480 cells [4] it was “underwent apoptosis”. The “synergy with Bortezomib (combination index)” value with 8226 cells is given as “synergyze the most with Bortezomib”. Further, the “sensitization to Bortezomib (cell viability)” value in data set [6] is “able to sensitize MM1S resistant cells to Bortezomib treatment”.
